Results taken from patent US4539322A, “Dihydropyridine derivatives and their use in treating heart conditions and hypertension” (Pfizer Inc., priority 1982, dated 1985).

tested on: rat aorta; test: Inhibition of calcium-induced contraction of isolated rat aorta strips (reduction of response to added calcium chloride in K+-containing saline); assay type: cell-based; conditions: 0.75 h; spirally cut rat aorta strips, 45 millimolar potassium, calcium 2 millimolar, test repeated with compound after 45 minutes; read-out: molar concentration of the compounds required to reduce the response by 50% (IC50)
Procedure: The ability of the compounds to inhibit the movement of calcium into the cell is shown by their effectiveness in reducing the response of isolated heart tissue to an increase in calcium ion concentration in vitro. The test is performed by mounting spirally cut strips of rat aorta with one end fixed and the other attached to a force transducer. The tissue is immersed in a bath of physiological saline solution containing potassium ion s at a concentration of 45 millimolar and no calcium. Calcium chloride is added to the bath with a pipette to give a final calcium ion concentration of 2 millimolar. The change in tension caused by the resulting contraction of the tissue is noted. The bath is drained and replaced with fresh saline solution and, after 45 minutes, the test is repeated with the particular compound under test present in the saline solution. The concentration of compound required to reduce the response by 50% is recorded.

SMILES	IC50 [nM]
CCOC(=O)C1=C(COCCN2CCN(C(=O)NC(C)(C)C)CC2)NC(C)=C(C(=O)OC)C1c1ccccc1Cl (stereo not shown) [Example 12]	2
CCOC(=O)C1=C(COCCN2CCN(C(=NC#N)NC(C)C)CC2)NC(C)=C(C(=O)OC)C1c1ccccc1Cl (stereo not shown) [Example 3]	10
CCOC(=O)C1=C(COCCN2CCN(C(N)=NC#N)CC2)NC(C)=C(C(=O)OC)C1c1ccccc1Cl (stereo not shown) [Example 5]	100
CCOC(=O)C1=C(COCCN2CCN(C(=O)NC3CC3)CC2)NC(C)=C(C(=O)OC)C1c1ccccc1Cl (stereo not shown) [Example 18]	6.92
CCOC(=O)C1=C(COCCN2CCN(C(=NS(=O)(=O)c3ccccc3)NC)CC2)NC(C)=C(C(=O)OC)C1c1ccccc1Cl (stereo not shown) [Example 8]	18.6

Other lines, results leading:

IC50 [nM]	SMILES
224	CCOC(=O)C1=C(COCC(C)N2CCNCC2)NC(C)=C(C(=O)OC)C1c1ccccc1Cl (stereo not shown) [Example 57]
2.5	CCOC(=O)C1=C(COCCN2CCN(C(=O)NC)CC2)NC(C)=C(C(=O)OC)C1c1cccc(Cl)c1Cl (stereo not shown) [Example 31]
15	CCOC(=O)C1=C(COCC(C)(C)N2CCN(C(=O)NC)CC2)NC(C)=C(C(=O)OC)C1c1ccccc1Cl (stereo not shown) [Example 29]
42	CCOC(=O)C1=C(COCCN2CCN(C(=NC(C)=O)NC(C)=O)CC2)NC(C)=C(C(=O)OC)C1c1ccccc1Cl (stereo not shown) [Example 66]
10	CCOC(=O)C1=C(COCCN2CCN(C(=O)OCC)CC2)NC(C)=C(C(=O)OC)C1c1ccccc1Cl (stereo not shown) [Example 49]
